Laboratory results published in patent US10899753B2, “Inhibiting agents for Bruton's tyrosine kinase” (BIOGEN MA INC., priority 2018, dated 2021).
pIC50: −log10 of the molar value.

How the values were obtained:
[1] = biological target: T1, BTK (Homo sapiens (Human), UniProt Q06187); test: In Vitro PD Assay in Human Whole Blood (pBTK assay); format: cell-based; conditions: human heparinized whole blood, 37° C. for 30 min, total BTK capture and phosphotyrosine detection (ECL)
Procedure: In Vitro PD Assay in Human Whole Blood
Human heparinized venous blood was purchased from Bioreclamation, Inc. or SeraCare Life Sciences and shipped overnight. Whole blood was aliquoted into 96-well plate and “spiked” with serial dilutions of test compound in DMSO or with DMSO without drug. The final concentration of DMSO in all wells was 0.1%. The plate was incubated at 37° C. for 30 min. Lysis buffer containing protease and phosphatase inhibitors was added to the drug-containing samples and one of the DMSO-only samples (+PPi, high control), while lysis buffer containing protease inhibitors was added to the other DMSO-only samples (−PPi, low control). All of the lysed whole blood samples were subjected to the total BTK capture and phosphotyrosine detection method described in US20160311802, incorporated herein by reference.

[2] = biological target: T1, BTK; test: In Vitro BTK Kinase Assay: BTK-POLYGAT-LS ASSAY; format: biochemical; conditions: fluorescein-labeled polyGAT peptide 100 nM, BTK enzyme 0.25 nM, 30 minutes, TRF
Procedure: In Vitro BTK Kinase Assay: BTK-POLYGAT-LS ASSAY
The purpose of the BTK in vitro assay is to determine compound potency against BTK through the measurement of IC50. […] For a typical assay, a […] aliquot of a ATP/peptide master mix (final concentration; ATP […], polyGAT 100 nM) in kinase buffer (10 mM Tris-HCl pH 7.5, 10 mM MgCl2, 200 μM Na3PO4, 5 mM DTT, 0.01% Triton X-100, and 0.2 mg/ml casein) is added to each well. […] The assay is incubated for 30 minutes before being stopped with 28 μL of a 50 mM EDTA solution. […] The plate is covered and incubated for 45 minutes at room temperature. Time resolved fluorescence (TRF) on Molecular Devices M5 (332 nm excitation; 488 nm emission; 518 nm fluorescein emission) is measured.

T1 sequence (Q06187 whole entry): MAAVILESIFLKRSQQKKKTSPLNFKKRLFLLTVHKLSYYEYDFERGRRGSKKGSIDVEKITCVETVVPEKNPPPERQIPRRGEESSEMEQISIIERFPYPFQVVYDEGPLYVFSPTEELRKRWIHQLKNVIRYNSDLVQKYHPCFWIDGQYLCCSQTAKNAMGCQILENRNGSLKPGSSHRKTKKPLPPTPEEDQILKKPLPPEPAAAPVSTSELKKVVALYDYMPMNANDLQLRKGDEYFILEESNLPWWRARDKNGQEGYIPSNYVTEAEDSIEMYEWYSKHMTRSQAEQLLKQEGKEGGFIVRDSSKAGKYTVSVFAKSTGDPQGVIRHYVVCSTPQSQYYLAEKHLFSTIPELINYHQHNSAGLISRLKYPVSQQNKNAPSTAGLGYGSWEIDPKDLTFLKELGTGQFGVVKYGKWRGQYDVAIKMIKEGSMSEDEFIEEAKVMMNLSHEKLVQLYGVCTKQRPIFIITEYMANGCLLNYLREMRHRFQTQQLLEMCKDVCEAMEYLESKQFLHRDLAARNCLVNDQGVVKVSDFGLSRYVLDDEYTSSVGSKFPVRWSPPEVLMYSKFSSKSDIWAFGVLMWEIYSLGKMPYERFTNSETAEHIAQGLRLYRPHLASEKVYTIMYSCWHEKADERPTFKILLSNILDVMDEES

| SMILES | pIC50 [1] | pIC50 [2] |
| --- | --- | --- |
| Cc1c(CNC(=O)c2cnn(C(C)(C)C)c2)ccc(-c2ncnc(Nc3cnn(C)c3)n2)c1F [Compound 36, 1-(tert-butyl)-N-(3-fluoro-2-methyl-4-(4-((1-methyl-1H-pyrazol-4-yl)amino)-1,3,5-triazin-2-yl)benzyl)-1H-pyrazole-4-carboxamide] | 6.30 to 7.00 | > 9.00 |
| Cn1ccc(Nc2ncnc(-c3ccc(CNC(=O)c4noc(C(C)(C)C)n4)c(Cl)c3)n2)n1 [Compound 5, 5-(tert-butyl)-N-(2-chloro-4-(4-((1-methyl-1H-pyrazol-3-yl)amino)-1,3,5-triazin-2-yl)benzyl)-1,2,4-oxadiazole-3-carboxamide] | 5.00 to 6.30 | 8.00 to 9.00 |
| Cc1cc(-c2ncnc(Nc3cnn(C)c3)n2)c(F)cc1CNC(=O)c1cc(C(C)(C)C)no1 [Compound 63, 3-(tert-butyl)-N-(5-fluoro-2-methyl-4-(4-((1-methyl-1H-pyrazol-4-yl)amino)-1,3,5-triazin-2-yl)benzyl)isoxazole-5-carboxamide] | 5.00 to 6.30 | > 9.00 |
| Cn1ccc(Nc2ncnc(-c3ccc4c(c3)CN(CC(F)(F)F)CC[C@H]4NC(=O)c3coc(C(C)(C)C)n3)n2)n1 [Compound 95, (R)-2-(tert-butyl)-N-(8-(4-((1-methyl-1H-pyrazol-3-yl)amino)-1,3,5-triazin-2-yl)-2-(2,2,2-trifluoroethyl)-2,3,4,5-tetrahydro-1H-benzo[c]azepin-5-yl)oxazole-4-carboxamide] | 5.00 to 6.30 | > 9.00 |
| Cc1cc(-c2ncnc(Nc3ccn(C)n3)n2)ccc1CNC(=O)c1noc(C(C)(C)CF)n1 [Compound 44, 5-(1-fluoro-2-methylpropan-2-yl)-N-(2-methyl-4-(4-((1-methyl-1H-pyrazol-3-yl)amino)-1,3,5-triazin-2-yl)benzyl)-1,2,4-oxadiazole-3-carboxamide] | 6.30 to 7.00 | 8.00 to 9.00 |
| Cc1cc(-c2ncnc(Nc3cnn(C)c3)n2)c(F)cc1CNC(=O)c1nc(C2(CF)CC2)no1 [Compound 60, N-(5-fluoro-2-methyl-4-(4-((1-methyl-1H-pyrazol-4-yl)amino)-1,3,5-triazin-2-yl)benzyl)-3-(1-(fluoromethyl)cyclopropyl)-1,2,4-oxadiazole-5-carboxamide] | 6.30 to 7.00 | > 9.00 |
| Cc1cc(-c2ncnc(Nc3cnn(C)c3)n2)c(F)cc1CNC(=O)c1noc(C(C)(C)C)n1 [Compound 56, 5-(tert-butyl)-N-(5-fluoro-2-methyl-4-(4-((1-methyl-1H-pyrazol-4-yl)amino)-1,3,5-triazin-2-yl)benzyl)-1,2,4-oxadiazole-3-carboxamide] | 6.30 to 7.00 | > 9.00 |
| Cc1cc(-c2ncnc(Nc3cnn(C)c3)n2)ccc1CNC(=O)c1noc(C2(CF)CC2)n1 [Compound 49, 5-(1-(fluoromethyl)cyclopropyl)-N-(2-methyl-4-(4-((1-methyl-1H-pyrazol-4-yl)amino)-1,3,5-triazin-2-yl)benzyl)-1,2,4-oxadiazole-3-carboxamide] | 6.30 to 7.00 | > 9.00 |
| Cn1cc(Nc2ncnc(-c3ccc4c(c3)CCCC[C@H]4NC(=O)c3noc(C(C)(C)C)n3)n2)cn1 [Compound 33, 5-tert-butyl-N-[(5R)-2-[4-[(1-methylpyrazol-4-yl)amino]-1,3,5-triazin-2-yl]-6,7,8,9-tetrahydro-5H-benzo[7]annulen-5-yl]-1,2,4-oxadiazole-3-carboxamide] | > 7.00 | > 9.00 |
| Cc1c(CNC(=O)c2noc(C3(CF)CC3)n2)ccc(-c2ncnc(Nc3cnn(C)c3)n2)c1F [Compound 50, N-(3-fluoro-2-methyl-4-(4-((1-methyl-1H-pyrazol-4-yl)amino)-1,3,5-triazin-2-yl)benzyl)-5-(1-(fluoromethyl)cyclopropyl)-1,2,4-oxadiazole-3-carboxamide] | > 7.00 | > 9.00 |
| Cc1cc(-c2ncnc(Nc3ccn(C)n3)n2)ccc1CNC(=O)c1cnc(C(C)(C)C)o1 [Compound 3, 2-(tert-butyl)-N-(2-methyl-4-(4-((1-methyl-1H-pyrazol-3-yl)amino)-1,3,5-triazin-2-yl)benzyl)oxazole-5-carboxamide] | 5.00 to 6.30 | 8.00 to 9.00 |
| Cc1c(CNC(=O)c2noc(C(C)(C)C)n2)ccc(-c2ncnc(Nc3cnn(C)c3)n2)c1F [Compound 13, 5-(tert-butyl)-N-(3-fluoro-2-methyl-4-(4-((1-methyl-1H-pyrazol-4-yl)amino)-1,3,5-triazin-2-yl)benzyl)-1,2,4-oxadiazole-3-carboxamide] | > 7.00 | > 9.00 |
| Cc1cc(-c2ncnc(Nc3ccn(C)n3)n2)ccc1CNC(=O)c1nn(C(C)(C)C)cc1F [Compound 4, 1-(tert-butyl)-4-fluoro-N-(2-methyl-4-(4-((1-methyl-1H-pyrazol-3-yl)amino)-1,3,5-triazin-2-yl)benzyl)-1H-pyrazole-3-carboxamide] | < 5.00 | 8.00 to 9.00 |
| Cn1cc(Nc2ncnc(-c3ccc4c(c3F)CCCC[C@H]4NC(=O)c3noc(C(C)(C)C)n3)n2)cn1 [Compound 88, (R)-5-(tert-butyl)-N-(1-fluoro-2-(4-((1-methyl-1H-pyrazol-4-yl)amino)-1,3,5-triazin-2-yl)-6,7,8,9-tetrahydro-5H-benzo[7]annulen-5-yl)-1,2,4-oxadiazole-3-carboxamide] | > 7.00 | > 9.00 |
| Cn1cc(Nc2ncnc(-c3ccc4c(c3)CCCC[C@H]4NC(=O)c3nc(C(C)(C)C)no3)n2)cn1 [Compound 34, 3-tert-butyl-N-[(5R)-2-[4-[(1-methylpyrazol-4-yl)amino]-1,3,5-triazin-2-yl]-6,7,8,9-tetrahydro-5H-benzo[7]annulen-5-yl]-1,2,4-oxadiazole-5-carboxamide] | > 7.00 | > 9.00 |
| Cc1cc(-c2ncnc(Nc3cnn(C)c3)n2)c(F)cc1CNC(=O)c1nc(C(C)(C)C)no1 [Compound 57, 3-(tert-butyl)-N-(5-fluoro-2-methyl-4-(4-((1-methyl-1H-pyrazol-4-yl)amino)-1,3,5-triazin-2-yl)benzyl)-1,2,4-oxadiazole-5-carboxamide] | 6.30 to 7.00 | > 9.00 |
| Cn1ccc(Nc2ncnc(-c3ccc(CNC(=O)c4nc(C(C)(C)C)no4)c(CC(F)F)c3)n2)n1 [Compound 68, 3-(tert-butyl)-N-(2-(2,2-difluoroethyl)-4-(4-((1-methyl-1H-pyrazol-3-yl)amino)-1,3,5-triazin-2-yl)benzyl)-1,2,4-oxadiazole-5-carboxamide] | 5.00 to 6.30 | 8.00 to 9.00 |
| Cn1ccc(Nc2ncnc(-c3ccc4c(c3F)CCCC[C@H]4NC(=O)c3coc(C(C)(C)C)n3)n2)n1 [Compound 112, (R)-2-(tert-butyl)-N-(1-fluoro-2-(4-((1-methyl-1H-pyrazol-3-yl)amino)-1,3,5-triazin-2-yl)-6,7,8,9-tetrahydro-5H-benzo[7]annulen-5-yl)oxazole-4-carboxamide] | 5.00 to 6.30 | > 9.00 |
| Cn1ccc(Nc2ncnc(-c3ccc4c(c3)CCCC[C@H]4NC(=O)c3noc(C(C)(C)CF)n3)n2)n1 [Compound 53, (R)-5-(1-fluoro-2-methylpropan-2-yl)-N-(2-(4-((1-methyl-1H-pyrazol-3-yl)amino)-1,3,5-triazin-2-yl)-6,7,8,9-tetrahydro-5H-benzo[7]annulen-5-yl)-1,2,4-oxadiazole-3-carboxamide] | 6.30 to 7.00 | > 9.00 |
| Cn1cc(Nc2ncnc(-c3ccc4c(c3)CN(CC(F)(F)F)CC[C@H]4NC(=O)c3noc(C(C)(C)C)n3)n2)cn1 [Compound 90, (R)-5-(tert-butyl)-N-(8-(4-((1-methyl-1H-pyrazol-4-yl)amino)-1,3,5-triazin-2-yl)-2-(2,2,2-trifluoroethyl)-2,3,4,5-tetrahydro-1H-benzo[c]azepin-5-yl)-1,2,4-oxadiazole-3-carboxamide] | > 7.00 | > 9.00 |
| Cc1c(-c2ncnc(Nc3ccn(C)n3)n2)ccc([C@@H](C)NC(=O)c2noc(C(C)(C)C)n2)c1Cl [Compound 79, (R)-5-(tert-butyl)-N-(1-(2-chloro-3-methyl-4-(4-((1-methyl-1H-pyrazol-3-yl)amino)-1,3,5-triazin-2-yl)phenyl)ethyl)-1,2,4-oxadiazole-3-carboxamide] | 5.00 to 6.30 | 8.00 to 9.00 |
| Cn1ccc(Nc2ncnc(-c3ccc4c(c3)CN(C3COC3)CC[C@H]4NC(=O)c3nc(C(C)(C)C)no3)n2)n1 [Compound 98, (R)-3-(tert-butyl)-N-(8-(4-((1-methyl-1H-pyrazol-3-yl)amino)-1,3,5-triazin-2-yl)-2-(oxetan-3-yl)-2,3,4,5-tetrahydro-1H-benzo[c]azepin-5-yl)-1,2,4-oxadiazole-5-carboxamide] | 6.30 to 7.00 | > 9.00 |
| Cc1c(CNC(=O)c2coc(C(C)(C)C)n2)ccc(-c2ncnc(Nc3ccn(C)n3)n2)c1F [Compound 100, 2-(tert-butyl)-N-(3-fluoro-2-methyl-4-(4-((1-methyl-1H-pyrazol-3-yl)amino)-1,3,5-triazin-2-yl)benzyl)oxazole-4-carboxamide] | 5.00 to 6.30 | > 9.00 |
